Results published in US8674110B2, “Pyridylacetylenes for use as radiotracers and imaging agents” (Novartis AG, priority 2003, dated 2014).
“And” between values parts separate entries of the source, which are not always exact repeats. Equal values may be shown once.

Key:
human mGlu5 receptor = biological target: T1, human mGlu5 receptor (Homo sapiens, UniProt P41594); assay: Ki/IC50 determination (binding assay), radioligand displacement
T1 construct: expressed in transfected cells
Procedure: In vitro, the affinity for the mGlu5 receptor is determined using a radioligand displacement technique as described by Gasparini et al, Biorg. Med. Chem. Lett. 2002, 12, 407-409.

mGlu5 receptors = biological target: T2, mGlu5 receptors (Rattus norvegicus, UniProt P31424); assay: Organ and brain structure distribution (biodistribution) with and without blockade; format: in vivo, Sprague-Dawley rats; conditions: 30 min post-injection, individual values
T2 construct: from tissue; host or cells: rat brain regions and organs (in vivo tracer distribution)
Procedure: Two groups of male adult Sprague-Dawley rats weighing 250-300 g are used for the biodistribution studies. The first group (n=3) serves as the control group and the second group (n=3) serves as the blockade group. Each animal received 250-300 pmol (0.6-40 MBq) of 3-(6-methyl-pyridin-2-ylethynyl)-cyclohex-2-enone O-[^11C-methyl]oxime via a lateral tail vein. The blockade group is co-injected with 2-methyl-6-((3-methoxyphenyl)ethynyl)-pyridine (1 mg/kg) whereas the control group (n=3) receives a corresponding volume of 0.9% NaCl. The animals are sacrificed 30 min post-injection. Organ or brain regions such as hippocampus, striatum, cortex and cerebellum are removed and measured in a gamma-counter. The tissue distribution is expressed as percentage of injected dose per gram wet tissue (% ID/g organ).
K1, K2, K3 are individual values for control animals. B1, B2, B3 are individual values for animals co-injected with 2-methyl-6-((3-methoxyphenyl)ethynyl)-pyridine.

[1] = blockade animals B1-B3 co-injected with 2-methyl-6-((3-methoxyphenyl)ethynyl)-pyridine 1 mg/kg
[2] = control animals K1-K3 (0.9% NaCl), i.v. tail vein

T2 sequence (P31424 21-1203): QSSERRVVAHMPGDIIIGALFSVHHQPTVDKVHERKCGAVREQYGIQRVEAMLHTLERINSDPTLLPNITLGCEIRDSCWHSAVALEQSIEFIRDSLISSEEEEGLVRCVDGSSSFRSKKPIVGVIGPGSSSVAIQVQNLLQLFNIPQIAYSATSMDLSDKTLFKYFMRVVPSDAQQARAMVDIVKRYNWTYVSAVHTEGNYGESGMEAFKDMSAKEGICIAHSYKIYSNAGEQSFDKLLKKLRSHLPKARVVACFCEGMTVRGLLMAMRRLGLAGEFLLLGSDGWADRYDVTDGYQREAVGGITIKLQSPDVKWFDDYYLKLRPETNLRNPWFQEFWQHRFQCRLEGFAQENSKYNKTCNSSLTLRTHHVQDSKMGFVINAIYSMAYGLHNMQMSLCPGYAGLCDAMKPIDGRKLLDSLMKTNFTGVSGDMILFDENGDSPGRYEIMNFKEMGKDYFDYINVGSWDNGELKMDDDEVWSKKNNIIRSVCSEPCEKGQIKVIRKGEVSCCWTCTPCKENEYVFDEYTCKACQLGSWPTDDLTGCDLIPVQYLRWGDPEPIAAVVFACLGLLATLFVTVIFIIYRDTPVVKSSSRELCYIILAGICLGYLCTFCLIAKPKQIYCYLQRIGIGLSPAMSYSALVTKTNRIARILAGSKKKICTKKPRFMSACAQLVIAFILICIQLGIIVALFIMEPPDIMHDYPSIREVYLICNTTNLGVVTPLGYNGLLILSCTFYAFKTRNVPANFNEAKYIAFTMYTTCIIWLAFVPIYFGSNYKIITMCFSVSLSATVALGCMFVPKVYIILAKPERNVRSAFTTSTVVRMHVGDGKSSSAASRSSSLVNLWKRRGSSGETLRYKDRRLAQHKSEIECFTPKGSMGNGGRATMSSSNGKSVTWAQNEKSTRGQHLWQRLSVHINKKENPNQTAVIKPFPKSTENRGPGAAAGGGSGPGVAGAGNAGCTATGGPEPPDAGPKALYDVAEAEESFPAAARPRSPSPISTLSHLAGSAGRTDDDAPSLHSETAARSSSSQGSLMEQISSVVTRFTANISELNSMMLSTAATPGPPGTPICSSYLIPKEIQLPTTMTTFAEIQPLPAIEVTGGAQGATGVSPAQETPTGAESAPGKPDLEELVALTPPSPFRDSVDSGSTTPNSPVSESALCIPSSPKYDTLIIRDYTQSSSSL
T1 sequence (P41594 21-1180 isoform P41594-2 limits assumed): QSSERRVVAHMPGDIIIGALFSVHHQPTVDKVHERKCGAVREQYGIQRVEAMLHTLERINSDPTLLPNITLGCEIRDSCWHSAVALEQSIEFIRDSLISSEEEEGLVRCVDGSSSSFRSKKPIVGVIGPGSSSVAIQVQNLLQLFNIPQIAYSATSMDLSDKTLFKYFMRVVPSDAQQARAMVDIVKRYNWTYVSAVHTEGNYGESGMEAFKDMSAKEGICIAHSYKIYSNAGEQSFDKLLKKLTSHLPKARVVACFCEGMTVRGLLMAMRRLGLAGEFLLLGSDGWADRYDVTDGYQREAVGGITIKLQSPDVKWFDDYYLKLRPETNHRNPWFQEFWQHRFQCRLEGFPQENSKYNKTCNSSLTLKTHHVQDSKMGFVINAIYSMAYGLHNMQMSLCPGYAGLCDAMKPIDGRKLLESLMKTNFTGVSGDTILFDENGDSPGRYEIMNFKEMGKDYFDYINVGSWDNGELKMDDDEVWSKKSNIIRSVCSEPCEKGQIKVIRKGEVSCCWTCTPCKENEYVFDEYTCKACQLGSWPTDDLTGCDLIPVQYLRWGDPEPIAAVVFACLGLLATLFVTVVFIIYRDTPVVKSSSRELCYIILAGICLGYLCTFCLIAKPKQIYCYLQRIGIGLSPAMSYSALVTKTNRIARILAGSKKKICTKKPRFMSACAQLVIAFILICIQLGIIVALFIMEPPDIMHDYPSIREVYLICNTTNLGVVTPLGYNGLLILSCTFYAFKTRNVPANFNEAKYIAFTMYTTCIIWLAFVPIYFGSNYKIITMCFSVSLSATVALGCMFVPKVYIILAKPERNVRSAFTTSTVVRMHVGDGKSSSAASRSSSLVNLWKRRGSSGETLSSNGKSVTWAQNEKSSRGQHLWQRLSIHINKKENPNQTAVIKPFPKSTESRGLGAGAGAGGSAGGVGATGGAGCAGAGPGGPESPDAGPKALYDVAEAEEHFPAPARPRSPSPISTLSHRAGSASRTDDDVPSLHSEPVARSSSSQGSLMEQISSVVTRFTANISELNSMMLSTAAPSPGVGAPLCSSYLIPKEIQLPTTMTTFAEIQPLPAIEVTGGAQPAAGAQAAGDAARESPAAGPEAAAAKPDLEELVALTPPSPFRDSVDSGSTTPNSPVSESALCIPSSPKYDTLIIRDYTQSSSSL

Compound	Ki (human mGlu5 receptor; calculated using the Cheng-Prusoff equation, radioligand concentration 2 nM) [nM]	Hill coefficient (human mGlu5 receptor; displacement of [3H]-2-methyl-6-((3-methoxyphenyl)ethynyl)-pyridine, L-tk cell membranes, human mGlu5)	IC50 (human mGlu5 receptor; membrane of L-tk cells stably expressing the human mGlu5 receptor, 95% confidence intervals: 6.0-10.0 nM, read-out: IC50 for the displacement of [3H]-2-methyl-6-((3-methoxyphenyl)ethynyl)-pyridine) [nM]	percentage of injected dose per gram wet tissue, Cerebellum (mGlu5 receptors; [1])	percentage of injected dose per gram wet tissue, Cortex (mGlu5 receptors; [1])	percentage of injected dose per gram wet tissue, Hippocampus (mGlu5 receptors; [1])	percentage of injected dose per gram wet tissue, Midbrain (mGlu5 receptors; [1])	percentage of injected dose per gram wet tissue, Restbrain (mGlu5 receptors; [1])	percentage of injected dose per gram wet tissue, Striatum (mGlu5 receptors; [1])	percentage of injected dose per gram wet tissue, Whole brain (mGlu5 receptors; [1])	percentage of injected dose per gram wet tissue, Cerebellum (mGlu5 receptors; [2])	percentage of injected dose per gram wet tissue, Cortex (mGlu5 receptors; [2])	percentage of injected dose per gram wet tissue, Hippocampus (mGlu5 receptors; [2])	percentage of injected dose per gram wet tissue, Midbrain (mGlu5 receptors; [2])	percentage of injected dose per gram wet tissue, Restbrain (mGlu5 receptors; [2])	percentage of injected dose per gram wet tissue, Striatum (mGlu5 receptors; [2])	percentage of injected dose per gram wet tissue, Whole brain (mGlu5 receptors; [2])
CON=C1C=C(C#Cc2cccc(C)n2)CCC1 [3-(6-methyl-pyridin-2-ylethynyl)-cyclohex-2-enone O-methyl-oxime]	4	1.08	8	–	–	–	–	–	–	–	–	–	–	–	–	–	–
Cc1cccc(C#CC2=CC(=NO[11CH3])CCC2)n1 [Example 1, 3-(6-Methyl-pyridin-2-ylethynyl)-cyclohex-2-enone O-[^11C-methyl]-oxime]	–	–	–	0.04052 % ID/g organ and 0.03608 % ID/g organ and 0.03421 % ID/g organ	0.04964 % ID/g organ and 0.05582 % ID/g organ and 0.05431 % ID/g organ	0.05184 % ID/g organ and 0.06195 % ID/g organ and 0.05972 % ID/g organ	0.03876 % ID/g organ and 0.047 % ID/g organ and 0.04422 % ID/g organ	0.03832 % ID/g organ and 0.04762 % ID/g organ and 0.04383 % ID/g organ	0.06495 % ID/g organ and 0.07158 % ID/g organ and 0.06487 % ID/g organ	0.0458 % ID/g organ and 0.05118 % ID/g organ and 0.04951 % ID/g organ	0.03322 % ID/g organ and 0.03925 % ID/g organ and 0.03699 % ID/g organ	0.1485 % ID/g organ and 0.1832 % ID/g organ and 0.1691 % ID/g organ	0.1615 % ID/g organ and 0.2544 % ID/g organ and 0.2126 % ID/g organ	0.07703 % ID/g organ and 0.1056 % ID/g organ and 0.09091 % ID/g organ	0.05519 % ID/g organ and 0.0652 % ID/g organ and 0.0607 % ID/g organ	0.2256 % ID/g organ and 0.3069 % ID/g organ and 0.2816 % ID/g organ	0.1112 % ID/g organ and 0.1366 % ID/g organ and 0.13 % ID/g organ
